Assay results: patent publication US9845295B2, “Triphenylethylene compounds and uses thereof” (Purdue Research Foundation, priority 2015, dated 2017)

Experiments:
[1] = molecular target: T1, recombinant human aromatase (CYP19) (Homo sapiens, UniProt P11511); assay: Inhibition of recombinant human aromatase (CYP19) by microsomal incubations (MFC fluorometric substrate); type: biochemical; settings: for times more potent than 7 against aromatase: ratio of IC50 values vs compound 7; for aromatase percent inhibition: at 50000 nM compound, 50 µM
T1 construct: purchased BD Biosciences (San Jose, Calif.)
T1 sequence (P11511 1-503): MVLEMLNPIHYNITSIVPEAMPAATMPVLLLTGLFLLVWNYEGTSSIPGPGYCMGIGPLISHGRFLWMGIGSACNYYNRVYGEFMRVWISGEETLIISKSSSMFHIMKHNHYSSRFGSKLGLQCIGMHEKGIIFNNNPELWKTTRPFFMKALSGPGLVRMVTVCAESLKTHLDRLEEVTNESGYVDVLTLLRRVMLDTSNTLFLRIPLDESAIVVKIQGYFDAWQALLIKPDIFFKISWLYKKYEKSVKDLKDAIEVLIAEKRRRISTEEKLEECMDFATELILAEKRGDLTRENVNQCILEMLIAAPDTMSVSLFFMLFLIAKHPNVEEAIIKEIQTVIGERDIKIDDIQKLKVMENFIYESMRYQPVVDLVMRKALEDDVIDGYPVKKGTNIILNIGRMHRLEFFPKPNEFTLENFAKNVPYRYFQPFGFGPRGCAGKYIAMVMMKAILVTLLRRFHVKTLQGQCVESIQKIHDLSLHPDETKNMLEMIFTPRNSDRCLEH
Method: Inhibition of Recombinant Human Aromatase (CYP19) by Microsomal Incubations.
All tested samples were dissolved in either methanol or DMSO. […] All the reactions were stopped by adding 0.1 M tris base dissolved in acetonitrile (75 μL). […] The extent of enzyme inhibition was expressed as the percentage of remaining enzyme activity compared to the control.

recombinant human ER-α = molecular target: T2, recombinant human ER-α (Homo sapiens, UniProt P03372); assay: Binding affinity for recombinant human ER-α (fluorescence polarization, ES2 displacement); settings: for IC50: read-out: binding affinities for ER-α (IC50)
T2 construct: purchased Invitrogen (Carlsbad, Calif.)
T2 sequence (P03372 1-595): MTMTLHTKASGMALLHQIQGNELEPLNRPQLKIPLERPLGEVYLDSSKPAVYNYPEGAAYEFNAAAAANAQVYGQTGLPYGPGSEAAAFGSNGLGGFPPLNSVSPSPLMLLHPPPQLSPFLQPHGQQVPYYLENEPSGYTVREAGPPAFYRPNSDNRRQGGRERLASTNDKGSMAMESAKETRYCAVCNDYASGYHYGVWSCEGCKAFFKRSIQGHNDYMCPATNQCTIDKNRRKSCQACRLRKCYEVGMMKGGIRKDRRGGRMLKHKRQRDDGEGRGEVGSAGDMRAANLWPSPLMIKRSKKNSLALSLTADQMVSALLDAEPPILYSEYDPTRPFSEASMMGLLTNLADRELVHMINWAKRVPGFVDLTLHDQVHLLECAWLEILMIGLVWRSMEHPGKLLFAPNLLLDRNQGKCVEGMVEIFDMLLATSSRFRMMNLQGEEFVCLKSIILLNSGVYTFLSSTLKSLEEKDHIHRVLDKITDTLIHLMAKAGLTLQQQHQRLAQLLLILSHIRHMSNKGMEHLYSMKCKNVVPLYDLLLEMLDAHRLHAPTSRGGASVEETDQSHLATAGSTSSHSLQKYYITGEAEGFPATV
Method: (§1) Binding Affinities for Recombinant Human ER-α and ER-β.
(§2) The binding affinities of ER-α and ER-β were determined by measuring the change of polarization value when the fluorescent estrogen ligand, ES2, was displaced by the tested compounds. Experimental procedures were consistent with the protocol provided by Invitrogen. The fluorescent estrogen ligand, ES2, was provided in methanol/water (4:1, v/v) with the concentration of 1800 nM. Recombinant human ER-α and ER-β were provided in buffer (50 mM bis-tris propane, 400 mM KCl, 2 mM DTT, 1 mM EDTA and 10% glycerol), with the concentration of 734 nM and 3800 nM, respectively. All tested samples were dissolved in either methanol or DMSO. The sample solutions (1 pt) were mixed well with 49 pt of ES2 screening buffer (100 mM potassium phosphate, 100 μg/mL BGG and 0.02% NaN3). The ER-α/ES2 complex was prepared with the fluorescent estrogen ligand ES2, human recombinant ER and ES2 screening buffer with the concentrations of 9 nM ES2 and 30 nM ER-α. The ER-β/ES2 complex was prepared with the fluorescent estrogen ligand ES2, human recombinant ER-β and ES2 screening buffer with the concentrations of 9 nM ES2 and 20 nM ER-ft Reactions were initiated by adding ER/ES2 complex (50 μL) to bring the incubation volume to 100 μL and incubated for 2 h avoiding light. […] Excitation-emission wavelengths for fluorescence polarization were […]. The polarization values in the presence of the test competitors were compared with those in control, in which the competitor was replaced with vehicle. The extent of competition was expressed as the percentage of remaining polarization compared to the control.

recombinant human ER-β = molecular target: T3, recombinant human ER-β (Homo sapiens, UniProt Q92731); assay: Binding affinity for recombinant human ER-β (fluorescence polarization, ES2 displacement); settings: for inhibition at 100 µM: 2 h, at 100000 nM compound, read-out: ER-β percent competition; for IC50: read-out: binding affinities for ER-β (IC50)
T3 construct: purchased Invitrogen (Carlsbad, Calif.)
Method: as §1, §2

[2] = Table 2, determined for compounds with inhibition higher than 90%
[3] = Table 1, mean of at least three experiments
[4] = Table 1, determined only for compounds with >90% competition

T3 sequence (Q92731 whole entry): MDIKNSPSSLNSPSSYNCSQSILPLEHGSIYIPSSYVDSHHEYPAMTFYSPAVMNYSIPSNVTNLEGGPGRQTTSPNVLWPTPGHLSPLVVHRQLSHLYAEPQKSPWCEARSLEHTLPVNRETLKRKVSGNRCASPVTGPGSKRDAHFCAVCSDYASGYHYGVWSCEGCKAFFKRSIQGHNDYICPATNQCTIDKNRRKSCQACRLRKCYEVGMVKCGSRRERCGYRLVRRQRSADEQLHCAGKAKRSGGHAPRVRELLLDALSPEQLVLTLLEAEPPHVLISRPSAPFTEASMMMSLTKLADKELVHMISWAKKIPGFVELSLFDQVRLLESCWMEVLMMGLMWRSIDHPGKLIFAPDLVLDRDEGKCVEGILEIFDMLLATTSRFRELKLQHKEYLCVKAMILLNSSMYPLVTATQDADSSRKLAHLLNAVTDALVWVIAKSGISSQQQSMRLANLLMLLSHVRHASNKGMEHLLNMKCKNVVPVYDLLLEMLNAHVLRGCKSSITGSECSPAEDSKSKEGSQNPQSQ

## CC(=C(c1ccc(O)cc1)c1ccc(O)cc1)c1ccc(N)cc1 [Compound 38a, 4-(2-(4-Aminophenyl)-1-(4-hydroxyphenyl)prop-1-enyl)phenol]
[1]; [2]
  IC50: 230 nM
Recombinant human ER-α; Table 2
  EC50: 11000 ± 827 nM
Recombinant human ER-β; Table 2
  EC50: 857 ± 389 nM

## CCC(=C(c1ccc(N)cc1)c1ccc(N)cc1)c1ccc([N+](=O)[O-])cc1 [Compound 37d, 4-(1-(4-Aminophenyl)-2-(4-nitrophenyl)but-1-enyl)benzenamine]
[1]; [2]
  IC50: 62.2 ± 7.8 nM
[1]
  times more potent than 7 against aromatase: ~400 times
Recombinant human ER-α; Table 2
  EC50: 72.1 ± 42.6 nM
Recombinant human ER-β; Table 2
  EC50: 70.8 ± 5.2 nM

## Oc1ccc(C(=C(Cn2cnnc2)c2ccc(O)c(F)c2)c2ccc(O)cc2)cc1 [Compound 20b, 4,4′-(2-(3-Fluoro-4-hydroxyphenyl)-3-(4H-1,2,4-triazol-4-yl)prop-1-ene-1,1-diyl)diphenol]
[1]; [3]
  IC50: 14200 ± 1100 nM
Recombinant human ER-α; Table 1, at 100 μM compound
  ER-α percent competition: 0% competition

## Nc1ccc(C(Cn2ccnc2)=C(c2ccc(O)cc2)c2ccc(O)cc2)cc1 [Compound 26, 4,4′-(2-(4-Aminophenyl)-3-(1H-imidazol-1-yl)prop-1-ene-1,1-diyl)diphenol]
[1]; [3]
  IC50: 5.24 ± 0.41 nM
Recombinant human ER-α; [4]
  EC50: 1830 ± 910 nM
Recombinant human ER-β; [4]
  EC50: 296 ± 154 nM

## CC(=C(c1ccc(O)cc1)c1ccc(O)cc1)c1ccc([N+](=O)[O-])cc1 [Compound 37a, 4-(1-(4-Hydroxyphenyl)-2-(4-nitrophenyl)prop-1-enyl)phenol]
[1]; Table 2
  aromatase percent inhibition: 75 % inhibition
Recombinant human ER-α; Table 2, at 100000 nM compound
  ER-α percent competition: 19% competition
Recombinant human ER-β; Table 2
  inhibition at 100 µM: 55%

## N#CCC(=C(c1ccc(O)cc1)c1ccc(O)cc1)c1ccccc1 [Compound 11, 4,4-Bis(4-hydroxyphenyl)-3-phenylbut-3-enenitrile]
[1]; [3]
  IC50: 12800 nM
Recombinant human ER-α; Table 1, at 100 μM compound
  ER-α percent competition: 56% competition
other
  melting point: 198 to 200 °C

## Nc1ccc(C(Cn2cnnc2)=C(c2ccc(O)cc2)c2ccc(O)cc2)cc1 [Compound 28, 4,4′-(2-(4-Aminophenyl)-3-(4H-1,2,4-triazol-4-yl)prop-1-ene-1,1-diyl)diphenol]
[1]; [3]
  IC50: 17.7 ± 1.2 nM
Recombinant human ER-α; Table 1, at 100 μM compound
  ER-α percent competition: 13% competition

## Oc1ccc(C(Cn2ccnc2)=C(c2ccc(O)cc2)c2ccc(O)cc2)cc1 [Compound 18a, 4,4′,4″-(3-(1H-Imidazol-1-yl)prop-1-ene-1,1,2-triyl)triphenol]
[1]; [3]
  IC50: 60 ± 4.1 nM
Recombinant human ER-α; [4]
  EC50: 97.8 ± 42.3 nM
Recombinant human ER-α
  IC50: 85.2 to 97.8 nM
Recombinant human ER-β; [4]
  EC50: 73.6 ± 29.9 nM
Recombinant human ER-β
  IC50: 56.3 to 73.6 nM

## Oc1ccc(C(=C(Cn2ccnc2)c2cccc(O)c2)c2ccc(O)cc2)cc1 [Compound 32, 4,4′-(2-(3-Hydroxyphenyl)-3-(1H-imidazol-1-yl)prop-1-ene-1,1-diyl)diphenol]
[1]; [3]
  IC50: 60.4 ± 1.7 nM
Recombinant human ER-α; Table 1, at 100 μM compound
  ER-α percent competition: 0% competition

## Oc1ccc(C(=C(Cn2cncn2)c2ccccc2)c2ccc(O)cc2)cc1 [Compound 13, 4,4′-(2-Phenyl-3-(1H-1,2,4-triazol-1-yl)prop-1-ene-1,1-diyl)diphenol]
[1]; [3]
  IC50: 137 nM
Recombinant human ER-α; Table 1, at 100 μM compound
  ER-α percent competition: 12% competition
other
  melting point: 143 to 145 °C

## CC(=C(c1ccc(N)cc1)c1ccc(N)cc1)c1ccc(N)cc1 [Compound 38c, 4-(1,2-Bis(4-aminophenyl)prop-1-enyl)benzenamine]
[1]; [2]
  IC50: 177 ± 20.2 nM
Recombinant human ER-α; Table 2, at 100000 nM compound
  ER-α percent competition: 31% competition
Recombinant human ER-β; Table 2
  inhibition at 100 µM: 77%

## CC(=C(c1ccc(N)cc1)c1ccc(N)cc1)c1ccc([N+](=O)[O-])cc1 [Compound 37c, 4-(1-(4-Aminophenyl)-2-(4-nitrophenyl)prop-1-enyl)benzenamine]
[1]; [2]
  IC50: 221 nM
[1]
  times more potent than 7 against aromatase: about 113 times
Recombinant human ER-α; Table 2
  EC50: 213 ± 53.7 nM
Recombinant human ER-β; Table 2
  EC50: 486 ± 240 nM

## Oc1ccc(C(Cn2cnnc2)=C(c2ccc(O)cc2)c2ccc(O)cc2)cc1 [Compound 20a, 4,4′,4″-(3-(4H-1,2,4-Triazol-4-yl)prop-1-ene-1,1,2-triyl)triphenol]
[1]; [3]
  IC50: 12500 ± 400 nM
Recombinant human ER-α; [4]
  EC50: 943 ± 285 nM
Recombinant human ER-β; [4]
  EC50: 1080 ± 100 nM

## Nc1ccc(C(Cn2cncn2)=C(c2ccc(O)cc2)c2ccc(O)cc2)cc1 [Compound 27, 4,4′-(2-(4-Aminophenyl)-3-(1H-1,2,4-triazol-1-yl)prop-1-ene-1,1-diyl)diphenol]
[1]; [3]
  IC50: 104 ± 9 nM
Recombinant human ER-α; Table 1, at 100 μM compound
  ER-α percent competition: 0% competition

## N#CCC(=C(c1ccc(O)cc1)c1ccc(O)cc1)c1ccc(O)c(F)c1 [Compound 17b, 3-(3-Fluoro-4-hydroxyphenyl)-4,4-bis(4-hydroxyphenyl)but-3-enenitrile]
[1]; [3]
  IC50: 17200 ± 2200 nM
Recombinant human ER-α; Table 1, at 100 μM compound
  ER-α percent competition: 0% competition
other
  melting point: 180 to 183 °C

## N#CCC(=C(c1ccc(O)cc1)c1ccc(O)cc1)c1ccc(O)cc1 [Compound 17a, 3,4,4-Tris(4-hydroxyphenyl)but-3-enenitrile]
[1]; [3]
  IC50: 15200 ± 300 nM
Recombinant human ER-α; Table 1, at 100 μM compound
  ER-α percent competition: 0% competition

## CCC(=C(c1ccc(O)cc1)c1ccc(O)cc1)c1ccc(N)cc1 [Compound 38b, 4-(2-(4-Aminophenyl)-1-(4-hydroxyphenyl)but-1-enyl)phenol]
[1]; [2]
  IC50: 8.8 nM
Recombinant human ER-α; Table 2
  EC50: 1710 ± 630 nM
Recombinant human ER-β; Table 2
  EC50: 1260 ± 424 nM

## Oc1ccc(C(Cn2cncn2)=C(c2ccc(O)cc2)c2ccc(O)cc2)cc1 [Compound 19a, 4,4′,4″-(3-(1H-1,2,4-Triazol-1-yl)prop-1-ene-1,1,2-triyl)triphenol]
[1]; [3]
  IC50: 3030 ± 150 nM
Recombinant human ER-α; Table 1, at 100 μM compound
  ER-α percent competition: 45% competition

## Oc1ccc(C(=C(Cn2ccnc2)c2ccc(O)c(F)c2)c2ccc(O)cc2)cc1 [Compound 18b, 4,4′-(2-(3-Fluoro-4-hydroxyphenyl)-3-(1H-imidazol-1-yl)prop-1-ene-1,1-diyl)diphenol]
[1]; [3]
  IC50: 94.4 ± 3.5 nM
Recombinant human ER-α; [4]
  EC50: 85.2 ± 14.2 nM
Recombinant human ER-α
  IC50: 85.2 to 97.8 nM
Recombinant human ER-β; [4]
  EC50: 56.3 ± 17.8 nM
Recombinant human ER-β
  IC50: 56.3 to 73.6 nM

## CCC(=C(c1ccc(O)cc1)c1ccc(O)cc1)c1ccc([N+](=O)[O-])cc1 [Compound 37b, 4-(1-(4-Hydroxyphenyl)-2-(4-nitrophenyl)but-1-enyl)phenol]
[1]; Table 2
  aromatase percent inhibition: 78 % inhibition
Recombinant human ER-α; Table 2, at 100000 nM compound
  ER-α percent competition: 40% competition
Recombinant human ER-β; Table 2
  inhibition at 100 µM: 66%

## Nc1cccc(C(Cn2ccnc2)=C(c2ccc(O)cc2)c2ccc(O)cc2)c1 [Compound 35, 4,4′-(2-(3-Aminophenyl)-3-(1H-imidazol-1-yl)prop-1-ene-1,1-diyl)diphenol]
[1]; [3]
  IC50: 439 ± 16 nM
Recombinant human ER-α; Table 1, at 100 μM compound
  ER-α percent competition: 60% competition

## Oc1ccc(C(=C(Cn2cncn2)c2ccc(O)c(F)c2)c2ccc(O)cc2)cc1 [Compound 19b, 4,4′-(2-(3-Fluoro-4-hydroxyphenyl)-3-(1H-1,2,4-triazol-1-yl)prop-1-ene-1,1-diyl)diphenol]
[1]; [3]
  IC50: 2980 ± 50 nM
Recombinant human ER-α; Table 1, at 100 μM compound
  ER-α percent competition: 2% competition

## CCC(=C(c1ccc(N)cc1)c1ccc(N)cc1)c1ccc(N)cc1 [Compound 38d, 4-(1,2-Bis(4-aminophenyl)but-1-enyl)benzenamine]
[1]; [2]
  IC50: 13.4 ± 3 nM
Recombinant human ER-α; Table 2, at 100000 nM compound
  ER-α percent competition: 25% competition
Recombinant human ER-β; Table 2
  inhibition at 100 µM: 76%
